Measured values reported in US5849753A, “Pyridyl imidazole derivatives and processes for the preparation thereof” (Korea Research Institute of Chemical Technology, priority 1994, dated 1998).

Legend:
[1] = tested on: renal hypertensive rat; experiment: Blood pressure lowering effect on oral administration to rats at several doses; assay type: in vivo, male Sprague-Dawley rats
Text: To induce renal hypertension, left renal artery of 4 week-old male Sprague-Dawley rats(from The Korea Research Institute of Chemical Technology) was ligated. The rats were anesthetized with ether and the surgical region on the left abdomen of the rat was shaved, disinfected, and then incised about 1 cm vertically. The renal artery near abdominal aorta was isolated carefully from surrounding tissues and veins, and then ligated completely with a suture(4/0 sterile surgical silk). The muscular strata and skin of the surgical area were sutured with a suture(4/0 sterile surgical silk). The surgical region was disinfected to prevent infection and thereafter, 200 to 250 mg/Kg/day of cephazolin sodium was injected intramuscularly for 2 days. 6 to 8 days after the ligation, rats showing systolic pressure of more than 180 mmHg were selected for renal hypertension test. The blood pressure was determined by a tail-cuff method from the tail under unanesthetized condition(Gerold, M. et al., Arzneimittrel-Forsch, 18, 1285(1968)).
Each of the compounds to be tested was administered intravenously or orally into the renal hypertensive rat. The blood pressure of the rats was determined by direct method(Chiu, A. T. et al., J. Pharmacol. Exp. Ther. 250, 867(1989)) using a catheter. The rats were anesthetized with ketamine hydrochloride(125 mg/kg, i.p.) and a catheter was filled with saline and inserted into a carotid artery and carotid vein. The surgical area was sutured with a metal clip. The rats were relaxed at least 3 hours and the catheter in the carotid artery was adapted to an isotec pressure transducer to determine their blood pressure and heart rate with a physiograph(Linearcorder WR3310). After the blood pressure was stabilized, the test compound was administered intravenously or orally. For intravenous administration, the administered volume and washing volume were 1.0 ml/Kg and 0.2 ml, respectively. The blood pressure and heart rate were measured in regular intervals up to 24 hours after the administration of the test compound and compared with those measured after the administration of the control compound Losartan.
The test compound was dissolved in 0.05N KOH for intravenous administration and suspended in Tween 80 for oral administration.
(iii) Blood pressure lowering effect The present compounds, Losartan(Dup 753) and the Merck compound were administrated orally to rats in 10, 3, 1, 0.3 and 0.1 mg/kg under the same condition as in (ii) and the blood pressure lowering effect was determined.

[2] = tested on: angiotensin II receptor; experiment: Angiotensin II Receptor Binding Assay ([3H] angiotensin II binding inhibition); details: [3H] angiotensin II ligand; 60 minutes, 25° C.; test concentration not given
In short: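 Rat membranes (SD adrenal cortex or medulla, Wistar liver) in 50 mM Tris pH 7.2, 5 mM MgCl2, 0.25% BSA were incubated with [3H]angiotensin II and test compound at graded concentrations for 60 min at 25 °C. Bound radioactivity was collected by GF/C filtration and scintillation counting, and percent binding inhibition was calculated versus untreated and blank.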

[3] = Metabolite analysis (enzyme digestion test); assay type: in vitro ADME, male rats; details: rat liver microsome and NADPH, 1 hour, 37° C.
Procedure: Enzyme digestion test was executed in order to detect the metabolite of the test compound in vivo.
A liver microsome and NADPH system of male rats were added to each of the present compound(Example 8) and the control compound(Merck), and the mixture was incubated for 1 hour at 37° C. The resultant was extracted with methanol or dichloromethane, and, thereafter, the organic layer was evaporated to obtain a residue. The residue was analyzed using high pressure liquid chromatography.

Binding Inhibition(%) [2]: 93.4%
metabolite from the enzymatic digestion ([3]; HPLC): no metabolite
stability against the enzymatic digestion ([3]; in contrast with the Merck compound): good stability
SMILES: CCCCc1nc2cc(-c3ccccn3)c(C(OC)OC)nc2n1Cc1ccc(-c2ccccc2-c2nnn[nH]2)cc1 [Example 8, 2-butyl-5-dimethoxymethyl-6-(pyridin-2-yl)-3-[2'-(1H-tetrazol-5-yl)-biphenyl-4-ylmethyl]-3H-imidazo[4,5-b]pyridine]
blood pressure lowering effect ([1]; 1 mg/kg): 32%
blood pressure lowering effect ([1]; 3 mg/kg): 35-37%
